Test results from patent US12642856B2, “Degraders of hepatitis C virus NS3/4A protein” (DANA-FARBER CANCER INSTITUTE, INC., priority 2018, dated 2026).
Read-outs that look alike come from different tables or passages of the source.

Legend:
[1] = target: T1, full-length HCV NS3 protein fused to eGFP (UniProt P27958+Q96SW2); test: Transient cellular HCV NS3 degradation assay; format: cell-based, Hepatitis C virus; conditions: for degradation of HCV NS3 by Western blot: 4-hour and 24-hour treatments, NS3-eGFP and NS3-eGFP-mCherry fusion proteins; for DC50: read-out: IC50, concentration that led to a 50% reduction in NS3-eGFP accumulation, flow cytometry; for DC50 / degradation of transiently expressed HCV NS3 (decrease in NS3-eGFP abundance): 4 hour treatment; for degradation of transiently expressed HCV NS3 (decrease in NS3-eGFP abundance): increasing concentrations
T1 construct: expressing the full-length HCV NS3 protein fused to eGFP; mCherry via FMVD 2A self-cleavage linker (C, cleaved yes); expressed in transfected cells
From the text: A system was set up to monitor NS3 degradation in the absence of other processes of the infectious viral cycle. […] Expressed in the absence of its cofactor, NS4A, the NS3 protein lacks any enzymatic activity, and the abundance of the NS3-eGFP fusion protein can be reliably monitored by eGFP fluorescence. Since the mCherry portion of the fusion protein is cleaved off during translation, its abundance in cells is not affected by small molecule-induced degradation of NS3-eGFP, and thus it serves as a control for protein expression. […]
The NS3 expressing cells were treated with increasing concentrations of compounds 13 and 22 for 4 hours. […] Compound 11 is an alpha-hydroxylamide analog of compound 13 that cannot form a covalent bond with the catalytic serine of the HCV NS3/4A protease due to a modification of the α-ketoamide group. […] The NS3 expressing cells were treated with increasing concentrations of compounds for 4 hours.

[2] = test system: HCV subgenomic replicon in Huh7.5 cells; test: Antiviral subgenomic replicon assay; format: cell-based; conditions: Hepatitis C virus, read-out: IC50, 50% reduction in reporter (luciferase) expression levels
Protocol: (§1) The antiviral activity of the degraders was evaluated in cell culture in a subgenomic replicon assay and an infectious assay. In the subgenomic replicon assay, the hepatoma cell line Huh7.5 was transfected with a HCV subgenomic replicon and treated with small molecules. The luciferase activity encoded by the subgenomic replicon served as a measure for viral replication. In the infectious assay, Huh7.5 cells were infected with HCV, and treated with small molecules. The amount of infectious virus released to the supernatants after treatment with the small molecule degraders served as a measure for their antiviral activity. […] The activity of the compounds described herein is dependent on protein degradation mediated by the cereblon E3 ligase, as HCV NS3 levels are partially rescued in the cereblon-deficient Huh7.5 cell line.
Huh7.5 cells were electroporated with the HCV subgenomic replicon and treated after 24 hours with a range of small molecule concentrations. The luciferase activity encoded by the replicon was measured in cells at 48 hours post-electroporation/24 hours post-treatment. The concentration of compound that led to a 50% reduction in reporter expression levels (IC50) was determined by non-linear regression.

HCV NS3 fusion protein = target: T2, HCV NS3 fusion protein (UniProt P27958+Q96SW2); test: NS3 degradation competition assay with lenalidomide; format: cell-based, Hepatitis C virus; conditions: Western blot; for effect of lenalidomide on compound-induced degradation of NS3: excess of cereblon ligand lenalidomide
T2 construct: expressing the full-length HCV NS3 protein fused to eGFP; mCherry via FMVD 2A self-cleavage linker (C, cleaved yes); expressed in transfected cells
From the text: The expression of the NS3 fusion protein was induced prior to the treatment of the NS3 expressing cells with an excess of the cereblon ligand lenalidomide.
FIG. 3 is a photograph of a Western blot showing degradation of HCV NS3 in the absence and presence of lenalidomide.

HCV in Huh7.5 cells = test: Antiviral infectious assay (TCID50); format: cell-based, Hepatitis C virus; conditions: for IC50: Hepatitis C virus, read-out: IC50, 50% reduction in viral titers
Protocol: as §1
Huh7.5 cells were infected with HCV and treated after 24 hours with a range of small molecule concentrations. The amount of infectious virus released to the supernatants at 48 hours post-infection/24 hours post-treatment was measured using a 50% tissue infectious dose (TCID50) assay. The concentration of compound that led to a 50% reduction in viral titers (IC50) was determined by non-linear regression.

HCV(NS3-A156S) = test: Viral resistance assay, HCV(NS3-A156S); format: cell-based, Hepatitis C virus
Protocol: (§2) Mutations A156S and V55A, two well-characterized resistance mutations that are located in the active site of the HCV NS3 protease where telaprevir binds, were selected. Infectious HCV clones bearing the NS3-V55A mutation or the NS3-A156S mutation were generated.
(§3) Huh7.5 cells were infected with wildtype HCV, or the telaprevir-resistant mutant viruses, HCV(NS3-V55A) and HCV(NS3-A156S). Cells were treated 24 hours after infection with a range of small molecule concentrations. The amount of infectious virus released to the supernatants at 48 hours post-infection/24 hours post-treatment was measured using a 50% tissue infectious dose (TCID50) assay. The concentration of compound that led to a 50% reduction in viral titers (IC50) was determined by non-linear regression.

wildtype HCV = test: Viral resistance assay, wildtype HCV; format: cell-based; conditions: Hepatitis C virus, Huh7.5, read-out: IC50, 50% reduction in viral titers
Protocol: as §2, §3

HCV(NS3-V55A) = test: Viral resistance assay, HCV(NS3-V55A); format: cell-based, Hepatitis C virus
Protocol: as §2, §3

[3] = Huh7.5 cells, 48 hours post-infection/24 hours post-treatment, TCID50
[4] = Huh7.5 cells, 48 hours post-electroporation/24 hours post-treatment

## CCC[C@H](NC(=O)[C@@H]1[C@H]2CCC[C@H]2CN1C(=O)[C@@H](NC(=O)[C@@H](NC(=O)c1cnc(C(=O)NCCCCCCNc2cccc3c2CN(C2CCC(=O)NC2=O)C3=O)cn1)C1CCCCC1)C(C)(C)C)C(=O)C(=O)NC1CC1 (stereo partly drawn) [Compound 1, N2-((S)-1-cyclohexyl-2-((S)-1-((1S,3aR,6aS)-1-((S)-1-(cyclopropylamino)-1,2-dioxohexan-3-ylcarbamoyl)hexahydrocyclopenta[c]pyrrol-2(1H)-yl)-3,3-dimethyl-1-oxobutan-2-ylamino)-2-oxoethyl)-N5-(6-(2-(2,6-dioxopiperidin-3-yl)-1-oxoisoindolin-4-ylamino)hexyl)pyrazine-2,5-dicarboxamide]
[1]
  degradation of HCV NS3 by Western blot: specific reduction in steady-state abundance
  DC50: 669 nM
[2]; Huh7.5, 48 h
  IC50: 3040 nM
HCV NS3 fusion protein
  effect of lenalidomide on compound-induced degradation of NS3: Lenalidomide inhibited degradation of NS3

## CCC[C@H](NC(=O)[C@@H]1[C@H]2CCC[C@H]2CN1C(=O)[C@@H](NC(=O)[C@@H](NC(=O)c1cnc(C(=O)NCCOCCOCCOc2cc3c4c(cccc4c2)C(=O)N(C2CCC(=O)NC2=O)C3=O)cn1)C1CCCCC1)C(C)(C)C)C(=O)C(=O)NC1CC1 (stereo partly drawn) [Compound 13, N2-((S)-1-cyclohexyl-2-((S)-1-((1S,3aR,6aS)-1-((S)-1-(cyclopropylamino)-1,2-dioxohexan-3-ylcarbamoyl)hexahydrocyclopenta[c]pyrrol-2(1H)-yl)-3,3-dimethyl-1-oxobutan-2-ylamino)-2-oxoethyl)-N5-(2-(2-(2-(2-(2,6-dioxopiperidin-3-yl)-1,3-dioxo-2,3-dihydro-1H-benzo[de]isoquinolin-5-yloxy)ethoxy)ethoxy)ethyl)pyrazine-2,5-dicarboxamide]
HCV in Huh7.5 cells; [3]
  IC50: 744 nM
HCV in Huh7.5 cells; subgenomic replicon and infectious assays, Huh7.5
  antiviral activity compared with telaprevir: antiviral potency close to that of the parental compound
[1]
  DC50: 50 nM
HCV(NS3-A156S)
  change in antiviral potency, NS3-A156S vs wildtype: 3 fold
HCV(NS3-A156S); read-out: IC50, 50% reduction in viral titers, HCV(NS3-A156S), Huh7.5, TCID50
  IC50: 1560 nM
Wildtype HCV
  IC50: 522 nM
HCV NS3 fusion protein
  effect of lenalidomide on compound-induced degradation of NS3: Lenalidomide inhibited degradation of NS3
HCV(NS3-V55A); read-out: IC50, 50% reduction in viral titers, HCV(NS3-V55A), Huh7.5, TCID50
  IC50: 508 nM

## CCC[C@H](NC(=O)[C@@H]1[C@H]2CCC[C@H]2CN1C(=O)[C@@H](NC(=O)[C@@H](NC(=O)c1cnc(C(=O)NCCOCCOCCNc2cccc3c2C(=O)N(C2CCC(=O)N(C)C2=O)C3=O)cn1)C1CCCCC1)C(C)(C)C)C(=O)C(=O)NC1CC1 (stereo partly shown) [Compound 20]
HCV NS3 fusion protein
  degradation of NS3 in the presence or absence of lenalidomide: no significant degradation of NS3

## CCC[C@H](NC(=O)[C@@H]1[C@H]2CCC[C@H]2CN1C(=O)[C@@H](NC(=O)[C@@H](NC(=O)c1cnc(C(=O)NCCOCCOCCNc2cccc3c2C(=O)N(C2CCC(=O)NC2=O)C3=O)cn1)C1CCCCC1)C(C)(C)C)C(=O)C(=O)NC1CC1 (stereo partly drawn) [Compound 3, N2-((S)-1-cyclohexyl-2-((S)-1-((1S,3aR,6aS)-1-((S)-1-(cyclopropylamino)-1,2-dioxohexan-3-ylcarbamoyl)hexahydrocyclopenta[c]pyrrol-2(1H)-yl)-3,3-dimethyl-1-oxobutan-2-ylamino)-2-oxoethyl)-N5-(2-(2-(2-(2-(2,6-dioxopiperidin-3-yl)-1,3-dioxoisoindolin-4-ylamino)ethoxy)ethoxy)ethyl)pyrazine-2,5-dicarboxamide]
HCV in Huh7.5 cells; [3]
  IC50: 2920 nM
[1]
  degradation of HCV NS3 by Western blot: specific reduction in steady-state abundance
[2]; [4]
  IC50: 2620 nM
HCV NS3 fusion protein
  effect of lenalidomide on compound-induced degradation of NS3: Lenalidomide inhibited degradation of NS3

## CCC[C@H](NC(=O)[C@@H]1[C@H]2CCC[C@H]2CN1C(=O)[C@@H](NC(=O)[C@@H](NC(=O)c1cnc(C(=O)NCCCCCCCC(=O)Nc2cccc3c2CN(C2CCC(=O)NC2=O)C3=O)cn1)C1CCCCC1)C(C)(C)C)C(=O)C(=O)NC1CC1 (stereo partly drawn) [Compound 4, N2-((S)-1-cyclohexyl-2-((S)-1-((1S,3aR,6aS)-1-((S)-1-(cyclopropylamino)-1,2-dioxohexan-3-ylcarbamoyl)hexahydrocyclopenta[c]pyrrol-2(1H)-yl)-3,3-dimethyl-1-oxobutan-2-ylamino)-2-oxoethyl)-N5-(8-(2-(2,6-dioxopiperidin-3-yl)-1-oxoisoindolin-4-ylamino)-8-oxooctyl)pyrazine-2,5-dicarboxamide]
[1]
  degradation of HCV NS3 by Western blot: specific reduction in steady-state abundance
  DC50: 2680 nM
[2]; [4]
  IC50: 1320 nM
HCV NS3 fusion protein
  effect of lenalidomide on compound-induced degradation of NS3: Lenalidomide inhibited degradation of NS3

## CCC[C@H](NC(=O)[C@@H]1[C@H]2CCC[C@H]2CN1C(=O)[C@@H](NC(=O)[C@@H](NC(=O)c1cnc(C(=O)NCCOCCOCCNc2cccc3c2C(=O)N(C2CCC(=O)NC2=O)C3=O)cn1)C1CCCCC1)C(C)(C)C)C(O)C(=O)NC1CC1 (stereo partly drawn) [Compound 11, N2-((1S)-1-cyclohexyl-2-((2S)-1-((1S,3aR,6aS)-1-((3S)-1-(cyclopropylamino)-2-hydroxy-1-oxohexan-3-ylcarbamoyl)hexahydrocyclopenta[c]pyrrol-2(1H)-yl)-3,3-dimethyl-1-oxobutan-2-ylamino)-2-oxoethyl)-N5-(2-(2-(2-(2-(2,6-dioxopiperidin-3-yl)-1,3-dioxoisoindolin-4-ylamino)ethoxy)ethoxy)ethyl)pyrazine-2,5-dicarboxamide]
[1]
  degradation of transiently expressed HCV NS3 (decrease in NS3-eGFP abundance): did not mediate degradation

## CCC[C@H](NC(=O)[C@@H]1[C@H]2CCC[C@H]2CN1C(=O)[C@@H](NC(=O)[C@@H](NC(=O)c1cnccn1)C1CCCCC1)C(C)(C)C)C(=O)C(=O)NC1CC1 [telaprevir, reference compound]
HCV in Huh7.5 cells; Huh7.5, 48 h
  IC50: 138 nM
[1]
  degradation of transiently expressed HCV NS3 (decrease in NS3-eGFP abundance): not observed
HCV(NS3-A156S)
  change in antiviral potency, NS3-A156S vs wildtype: 10 fold
Wildtype HCV
  IC50: 98 nM
[2]; Huh7.5, 48 h
  IC50: 240 nM
HCV(NS3-V55A)
  change in antiviral potency, NS3-V55A vs wildtype: 3 fold

## CCC[C@H](NC(=O)[C@@H]1[C@H]2CCC[C@H]2CN1C(=O)[C@@H](NC(=O)[C@@H](NC(=O)c1cnc(C(=O)NCCOCCOCCOc2cc3c4c(cccc4c2)C(=O)N(C2CCC(=O)N(C)C2=O)C3=O)cn1)C1CCCCC1)C(C)(C)C)C(=O)C(=O)NC1CC1 (stereo partly drawn) [Compound 22, N2-((S)-1-cyclohexyl-2-((S)-1-((1S,3aR,6aS)-1-((S)-1-(cyclopropylamino)-1,2-dioxohexan-3-ylcarbamoyl)hexahydrocyclopenta[c]pyrrol-2(1H)-yl)-3,3-dimethyl-1-oxobutan-2-ylamino)-2-oxoethyl)-N5-(2-(2-(2-(2-(1-methyl-2,6-dioxopiperidin-3-yl)-1,3-dioxo-2,3-dihydro-1H-benzo[de]isoquinolin-5-yloxy)ethoxy)ethoxy)ethyl)pyrazine-2,5-dicarboxamide]
[1]
  degradation of transiently expressed HCV NS3 (decrease in NS3-eGFP abundance): did not degrade HCV NS3
[1]; N-methylated glutarimide negative controls
  binding to cereblon (concluded from degradation assay): unable to bind cereblon
HCV NS3 fusion protein
  degradation of NS3 in the presence or absence of lenalidomide: no significant degradation of NS3
